Data: patent publication US20120264685A1 (priority 2009, published 2012)
Where a SMILES comes first, the peptide text is derived from it. [ ]: non-standard residue; d: D form. ξ: configuration not given here. ξαMeBip(2'-Et,4'-OMe) = CCc1cc(OC)ccc1-c1ccc(CC(C)(N)C(=O)O)cc1; ξBip(2'-Et-4'-OMe) = CCc1cc(OC)ccc1-c1ccc(CC(N)C(=O)O)cc1; ξαMePhe(2,6-F2) = CC(N)(Cc1c(F)cccc1F)C(=O)O; ξαMe(hhPhe) = CC(N)(CCCc1ccccc1)C(=O)O; ξαMePhe(2-F) = CC(N)(Cc1ccccc1F)C(=O)O; ξhhPhe = NC(CCCc1ccccc1)C(=O)O; ξαMeD = CC(N)(CC(=O)O)C(=O)O; ξαMeP = CC1(C(=O)O)CCCN1; Ac5c = NC1(C(=O)O)CCCC1; ξαMeS = CC(N)(CO)C(=O)O; Aib = CC(C)(N)C(=O)O

Tests used:
male C57BL/6J mice = assay: Acute single dose 120-min time-course experiment, in vivo glucose reduction; set-up: unit not given here; settings: 2 μM/kg, oral, n = 8, Mean ± SEM
Procedure: Acute single dose 120-min time-course experiments were carried out in male C57BL/6J or db/db mice, age 8-12 weeks, bred in-house. The animals were housed in groups of 6 animals per cage, for a week, in order to habituate them to vivarium conditions (25+4° C., 60-65% relative humidity, 12:12 h light: dark cycle, with lights on at 7.30 am). All the animal experiments were carried out according to the internationally valid guidelines following approval by the ‘Zydus Research Center animal ethical committee’.
[…] On the day of experiment, food was withdrawn from all the cages, water was given ad-libitum and were kept for overnight fasting. Vehicle (normal saline)/test/standard compounds were administered intraperitoneally (i.p.) or orally, on a body weight basis. Soon after the 0 min. blood collection from each animal, the subsequent blood collections were done at 30, 60 and 120 or upto 240 min., via retro-orbital route, under light ether anesthesia (Chen, D., et al., Diabetes Obesity Metabolism, 2005, 7, 307. Kim, J. G. et al., Diabetes, 2003, 52, 751).
The blood samples were centrifuged and the separated serum was immediately subjected for the glucose estimation. The serum for insulin estimation was stored at −70° C. until used for the insulin estimation. The glucose estimation was carried out with DPEC-GOD/POD method (Ranbaxy Fine Chemicals Limited, Diagnostic division, India), using Spectramax-190, in 96-microwell plate reader (Molecular devices Corporation, Sunnyvale, Calif.). […] The AUC and BCAUC obtained from graphs were analyzed for one way ANOVA, followed by Dunnett's post test, using Graph Pad prism software. Furthermore, the insulin estimation was carried out using rat/mouse insulin ELISA kit (Linco research, Missouri USA).

[1] = test system: RIN5F (Rat Insulinoma) cells; assay: In vitro glucose-dependent insulin secretion (RIN5F cell assay); type: cell-based; settings: 16.7-mM glucose load, n = 3, mean ± S.D.
Procedure: RIN5F (Rat Insulinoma) cells were cultured in RPMI 1640 medium supplemented with sodium pyruvate (1 mM) HEPES and Glucose (4.5 g/L) in a humidified incubator (5% CO2), at 37° C. After trypsinization, RIN5F cells were seeded at a concentration of 0.2×10^6 cells per well, in 12 well plates. The cells were grown overnight to 80% confluence and insulin secretion experiments were performed as follows (Montrose-Rafizadeh C., et al., Mol. Cell. Endo. 1997, 130, 109.; Wang, X., et al., Endocrinology 2001, 5, 1820).
The cells were washed once with PBS solution followed by 40 min. incubation in fresh Krebs-Ringer Balanced Buffer containing NaCl (115 mmol/L), KCl (4.7 mmol/L), CaCl2 (1.28 mmol/L), MgSO4.7H2O (1.2 mmol/L), KH2PO4 (1.2 mmol/L), NaHCO3 (10 mmol/L) and HEPES (25 mmol/L), containing Glucose (1.1 mM) and B.S.A (0.5%), pH 7.4. The buffer was replaced after 40 min. and the cells were incubated (37° C.) with the test peptidomimetics, at different concentration, for 30 min., both in the presence (16.7 mM) and absence (0 mM) of glucose load. The supernatant was collected and the insulin amount was measured by ultra sensitive Rat insulin ELISA kit (Crystal Chem, IL). The protein was estimated in the supernatant using Bicinchoninic Acid kit, according to the manufacturer's protocol (Sigma Aldrich, MO). The total insulin content obtained in Pico-gram (pg) was divided with the total protein (μg) in order to normalize for differences in cell density between wells.

Structure (SMILES) | blood glucose level (in vivo glucose reduction) (male C57BL/6J mice; 0 min) | blood glucose level (in vivo glucose reduction) (male C57BL/6J mice; 30 min) | blood glucose level (in vivo glucose reduction) (male C57BL/6J mice; 60 min) | blood glucose level (in vivo glucose reduction) (male C57BL/6J mice; 120 min) | Insulin secretion ([1]; 0.1 nM test compd.) | Insulin secretion ([1]; 1 nM test compd.) | Insulin secretion ([1]; 10 nM test compd.)
CCc1cc(OC)ccc1-c1ccc(CC(C)(NC(=O)C(C)(CC(=O)O)NC(=O)[C@H](CO)NC(=O)[C@@H](NC(=O)[C@H](Cc2ccccc2)NC(=O)[C@@H](NC(=O)CNC(=O)[C@H](CCC(N)=O)NC(=O)C(C)(C)NC(=O)[C@H](Cc2c[nH]cn2)NC(=O)[C@@H](N)C(C)C)[C@@H](C)O)[C@@H](C)O)C(=O)NC(CCCc2ccccc2)C(N)=O)cc1 (single isomer, unassigned) [Seq. ID. No. 59, VH-Aib-QGTFTS-(αMe-Asp)-(αMe-Bip(OMe))-(APPA)] | 184 ± 2.5 | 115 ± 3.6 | 113 ± 4.2 | 110 ± 2.4 |  |  | 
CCc1cc(OC)ccc1-c1ccc(CC(NC(=O)[C@H](CC(=O)O)NC(=O)[C@H](CO)NC(=O)[C@@H](NC(=O)[C@H](Cc2ccccc2)NC(=O)[C@@H](NC(=O)CNC(=O)[C@H](CCC(N)=O)NC(=O)C2(NC(=O)[C@H](Cc3c[nH]cn3)NC(=O)[C@@H](N)C(C)C)CCCC2)[C@@H](C)O)[C@@H](C)O)C(=O)NC(C)(CCCc2ccccc2)C(N)=O)cc1 (stereo partly shown) [compound 85] (H-VH[Ac5c]QGTFTSD[ξBip(2'-Et-4'-OMe)][ξαMe(hhPhe)]-NH2) |  |  |  |  | 12.1 ± 0.52 pg/µg/h | 14.1 ± 0.16 pg/µg/h | 28.0 ± 0.36 pg/µg/h
CCc1cc(OC)ccc1-c1ccc(CC(NC(=O)[C@H](CC(=O)O)NC(=O)[C@H](CO)NC(=O)[C@@H](NC(=O)C(C)(Cc2c(F)cccc2F)NC(=O)[C@@H](NC(=O)CNC(=O)[C@H](CCC(=O)O)NC(=O)[C@H](CO)NC(=O)[C@H](Cc2c[nH]cn2)NC(=O)[C@@H](N)C(C)C)[C@@H](C)O)[C@@H](C)O)C(=O)NC(C)(CCCc2ccccc2)C(N)=O)cc1 (stereo partly shown) [compound 103] (H-VHSEGT[ξαMePhe(2,6-F2)]TSD[ξBip(2'-Et-4'-OMe)][ξαMe(hhPhe)]-NH2) |  |  |  |  | 12.3 ± 0.33 pg/µg/h | 14.1 ± 0.36 pg/µg/h | 28.0 ± 0.16 pg/µg/h
CCc1cc(OC)ccc1-c1ccc(CC(NC(=O)C(C)(CC(=O)O)NC(=O)C(C)(CO)NC(=O)[C@@H](NC(=O)C(C)(Cc2ccccc2F)NC(=O)[C@@H](NC(=O)CNC(=O)[C@H](CCC(=O)O)NC(=O)[C@H](CO)NC(=O)[C@H](Cc2c[nH]cn2)NC(=O)[C@@H](N)C(C)C)[C@@H](C)O)[C@@H](C)O)C(=O)NC(C)(CCCc2ccccc2)C(N)=O)cc1 (stereo partly shown) [compound 119] (H-VHSEGT[ξαMePhe(2-F)]T[ξαMeS][ξαMeD][ξBip(2'-Et-4'-OMe)][ξαMe(hhPhe)]-NH2) |  |  |  |  | 12.4 ± 0.22 pg/µg/h | 15.2 ± 0.32 pg/µg/h | 29.6 ± 0.50 pg/µg/h
CCc1cc(OC)ccc1-c1ccc(CC(NC(=O)C(C)(CC(=O)O)NC(=O)C(C)(CO)NC(=O)[C@@H](NC(=O)C(C)(Cc2c(F)cccc2F)NC(=O)[C@@H](NC(=O)CNC(=O)[C@H](CCC(N)=O)NC(=O)C2(C)CCCN2C(=O)[C@H](Cc2c[nH]cn2)NC(=O)[C@@H](N)C(C)C)[C@@H](C)O)[C@@H](C)O)C(=O)NC(C)(CCCc2ccccc2)C(N)=O)cc1 (stereo partly shown) [compound 126] (H-VH[ξαMeP]QGT[ξαMePhe(2,6-F2)]T[ξαMeS][ξαMeD][ξBip(2'-Et-4'-OMe)][ξαMe(hhPhe)]-NH2) |  |  |  |  | 16.6 ± 0.41 pg/µg/h | 22.9 ± 0.32 pg/µg/h | 36.6 ± 0.19 pg/µg/h
CCc1cc(OC)ccc1-c1ccc(CC(NC(=O)C(C)(CC(=O)O)NC(=O)C(C)(CO)NC(=O)[C@@H](NC(=O)C(C)(Cc2c(F)cccc2F)NC(=O)[C@@H](NC(=O)CNC(=O)[C@H](CCC(=O)O)NC(=O)C2(C)CCCN2C(=O)[C@H](Cc2c[nH]cn2)NC(=O)[C@@H](N)C(C)C)[C@@H](C)O)[C@@H](C)O)C(=O)NC(C)(CCCc2ccccc2)C(N)=O)cc1 (stereo partly shown) [compound 130] (H-VH[ξαMeP]EGT[ξαMePhe(2,6-F2)]T[ξαMeS][ξαMeD][ξBip(2'-Et-4'-OMe)][ξαMe(hhPhe)]-NH2) |  |  |  |  | 15.6 ± 0.33 pg/µg/h | 21.8 ± 0.16 pg/µg/h | 35.6 ± 0.26 pg/µg/h
CCc1cc(OC)ccc1-c1ccc(CC(C)(NC(=O)[C@H](CC(=O)O)NC(=O)C(C)(CO)NC(=O)[C@@H](NC(=O)[C@H](Cc2ccccc2)NC(=O)[C@@H](NC(=O)CNC(=O)[C@H](CCC(N)=O)NC(=O)C2(C)CCCN2C(=O)[C@H](Cc2c[nH]cn2)NC(=O)[C@@H](N)C(C)C)[C@@H](C)O)[C@@H](C)O)C(=O)NC(C)(CCCc2ccccc2)C(N)=O)cc1 (stereo partly shown) [compound 160] (H-VH[ξαMeP]QGTFT[ξαMeS]D[ξαMeBip(2'-Et,4'-OMe)][ξαMe(hhPhe)]-NH2) |  |  |  |  | 16.8 ± 0.20 pg/µg/h | 22.7 ± 0.29 pg/µg/h | 36.6 ± 0.31 pg/µg/h
CCc1cc(OC)ccc1-c1ccc(CC(C)(NC(=O)[C@H](CC(=O)O)NC(=O)C(C)(CO)NC(=O)[C@@H](NC(=O)C(C)(Cc2ccccc2F)NC(=O)[C@@H](NC(=O)CNC(=O)[C@H](CCC(N)=O)NC(=O)C2(C)CCCN2C(=O)[C@H](Cc2c[nH]cn2)NC(=O)[C@@H](N)C(C)C)[C@@H](C)O)[C@@H](C)O)C(=O)NC(C)(CCCc2ccccc2)C(N)=O)cc1 (stereo partly shown) [compound 168] (H-VH[ξαMeP]QGT[ξαMePhe(2-F)]T[ξαMeS]D[ξαMeBip(2'-Et,4'-OMe)][ξαMe(hhPhe)]-NH2) |  |  |  |  | 11.9 ± 0.17 pg/µg/h | 14.2 ± 0.13 pg/µg/h | 27.6 ± 0.16 pg/µg/h
CCc1cc(OC)ccc1-c1ccc(CC(C)(NC(=O)[C@H](CC(=O)O)NC(=O)C(C)(CO)NC(=O)[C@@H](NC(=O)C(C)(Cc2c(F)cccc2F)NC(=O)[C@@H](NC(=O)CNC(=O)[C@H](CCC(N)=O)NC(=O)C(C)(C)NC(=O)[C@H](Cc2c[nH]cn2)NC(=O)[C@@H](N)C(C)C)[C@@H](C)O)[C@@H](C)O)C(=O)NC(C)(CCCc2ccccc2)C(N)=O)cc1 (stereo partly shown) [compound 175] (H-VH[Aib]QGT[ξαMePhe(2,6-F2)]T[ξαMeS]D[ξαMeBip(2'-Et,4'-OMe)][ξαMe(hhPhe)]-NH2) |  |  |  |  | 12.4 ± 0.22 pg/µg/h | 15.2 ± 0.32 pg/µg/h | 29.6 ± 0.50 pg/µg/h
CCc1cc(OC)ccc1-c1ccc(CC(C)(NC(=O)C(C)(CC(=O)O)NC(=O)[C@H](CO)NC(=O)[C@@H](NC(=O)[C@H](Cc2ccccc2)NC(=O)[C@@H](NC(=O)CNC(=O)[C@H](CCC(N)=O)NC(=O)[C@H](C)NC(=O)[C@H](Cc2c[nH]cn2)NC(=O)[C@@H](N)C(C)C)[C@@H](C)O)[C@@H](C)O)C(=O)NC(C)(CCCc2ccccc2)C(N)=O)cc1 (stereo partly shown) [compound 182] (H-VHAQGTFTS[ξαMeD][ξαMeBip(2'-Et,4'-OMe)][ξαMe(hhPhe)]-NH2) |  |  |  |  | 13.1 ± 0.11 pg/µg/h | 14.9 ± 0.17 pg/µg/h | 28.8 ± 0.44 pg/µg/h
CCc1cc(OC)ccc1-c1ccc(CC(C)(NC(=O)[C@H](CC(=O)O)NC(=O)[C@H](CO)NC(=O)[C@@H](NC(=O)[C@H](Cc2ccccc2)NC(=O)[C@@H](NC(=O)CNC(=O)[C@H](CCC(=O)O)NC(=O)[C@H](C)NC(=O)[C@H](Cc2c[nH]cn2)NC(=O)[C@@H](NC(=O)[C@@H](N)C(C)C)C(C)C)[C@@H](C)O)[C@@H](C)O)C(=O)NC(CCCc2ccccc2)C(N)=O)cc1 (stereo partly shown) [compound 210] (H-VVHAEGTFTSD[ξαMeBip(2'-Et,4'-OMe)][ξhhPhe]-NH2) |  |  |  |  | 16.3 ± 0.15 pg/µg/h | 22.4 ± 0.21 pg/µg/h | 36.2 ± 0.11 pg/µg/h
